Results on nine compounds are retold here after US12390441B2, “Immunomodulating o-het/aryl azalides” (Zoetis Services LLC, priority 2020, dated 2025).

Marks after values point to notes of the source that are not given here.

In one assay the test system is P. multocida. Description: In-vitro MIC model (CLSI broth micro-dilution). The format is cell-based, Pasteurella multocida.
Another assay relates to M. haemolytica. Description: In-vitro MIC model (CLSI broth micro-dilution). The format is cell-based, Mannheimia haemolytica. For orientation: In broth dilution the organism is exposed to a series of concentrations in liquid medium.
In another assay the test system is S. aureus (29213 ATCC). Description: In-vitro MIC model (CLSI broth micro-dilution). The format is cell-based.
A further assay concerns IL-1β. Description: Whole blood assay, LPS stimulation, MSD cytokine detection. In kind it is cell-based, bovine. Particulars: fresh whole bovine blood, LPS stimulation; drug concentration giving overstimulation (OS) of IL-1β.
In a further assay the test system is P. multocida 46572. Briefly: In vivo mouse lung infection challenge model (murine). Particulars: for % Survival: 46572, sc, 20 mg/kg, 240 h. Details: species or system CD-1 female mice. As for the experimental part: The challenge organism was P. multocida 46572. Target challenge concentration was 5×10^2 CFU/mouse. Isolated colonies from overnight growth (37° C. with 5% CO2) on trypticase soy agar (TSA II) blood plates were transferred to room temperature Brain Heart Infusion Broth (BHIB). The broth culture was incubated 3.5-4 hours to approximately mid-log phase of growth, as measured by forward light scatter at 600 nm (OD600, 0.200). The culture was centrifuged to collect the bacterial pellet. The pellet was re-suspended in BHIB and adjusted to provide an approximate concentration of 2.7 log^10 colony forming units (CFU) in 0.04 mL at the highest concentration. The challenge inoculum concentration was confirmed by serial dilutions of the inoculum for CFU enumeration. On Day −5, CD-1 female mice were received. Mice were given standard rodent diet and water ad libitum. On Day 0, bacterial inoculum (0.04 mL) was administered to each mouse (n=36) intranasally. Compounds of the invention were dosed at 20 mg/kg (0.1 mL) in a buffered (˜pH 5.4) propylene glycol, monothioglycerol and water solution by subcutaneous injection. Animals were observed from Days 1-10. The study was terminated on Day 10. In addition, some treatment groups were sampled at 6, 24, and 48 hours post bacterial challenge for RNA sequence analysis of lung tissue.
The murine efficacy model (P. multocida challenge) was optimized, and the treatment group size was powered to be able to observe statistically significant improvement of survival to expected ranges for immunomodulatory compounds. The experimental design was a randomized complete block design. Mice were individually identified and treatment groups comingled within a cage, with every treatment group equally represented across cages. Mortality was the primary variable. Mortality data was analyzed using a generalized mixed model with fixed effect of treatment and random effect of block. Survival time was also analyzed using the SAS PHREG (survival analysis) procedure to examine whether there were significant differences between treatment groups and the control group. Numerous compounds of the invention and M9 (positive control) were tested in this model at a dose of 20 mg/kg (Table 3). Typical percent survival for no treatment control is in the range of 0-20% based on study to study variation in challenge inoculum and rate of infection. […] Mouse survival for M9 was about 90-100%, further supporting its residual antibacterial properties against the bacterial strain. Harmonized survival accounts for % survival relative to vehicle (“−” control) and M9 (“+” control)) survival data (Table 3).

Assay [1] concerns BRD pathogens, M. haemolytica and P. multocida. Briefly: In-vitro MIC model, BRD pathogen screening panel. The format is cell-based, Mannheimia haemolytica; Pasteurella multocida. Particulars: at least one BRD strain.
For a further assay, the system named is TNF-α. Description: Whole blood assay, LPS stimulation, MSD cytokine detection. Particulars: Bos taurus, fresh whole bovine blood. In kind it is cell-based.
A further assay deals with IL-6. The description is as above. The format is cell-based. Particulars: Bos taurus, fresh whole bovine blood.
The test system of assay [2] is Lung bacteria isolated at necropsy. Briefly: MIC of recovered isolates, natural bovine respiratory disease study.
Experimental: The primary clinical endpoint for efficacy was treatment failure/success over a 14-day observation period. Clinically normal beef calves (150-200 kg) at moderate risk for BRD were dosed on arrival to the feedlot. Animals (N=114/group) received saline (T01), 5 mg/kg M9 (T02) or 10 mg/kg M9 (T03); or Zactran (T04). […] Bacterial isolates were collected at necropsy and MICs were evaluated (Table 4).
Setting [3] is: H. somni (25) lung isolates at necropsy.
Where [4] appears, read: M. haemolytica (116) lung isolates at necropsy.
The mark [5] stands for this setting: P. multocida (33) lung isolates at necropsy.

Turning to `CC[C@H]1OC(=O)[C@H](C)[C@@H](O)[C@H](C)[C@@H](O[C@@H]2O[C@H](C)C[C@H](N(C)C(=O)N(C)C3CC3)[C@H]2Oc2ccccc2)[C@](C)(O)C[C@@H](C)CN(C)[C@H](C)[C@@H](O)[C@]1(C)O` [Example C-27], the “Comparative MIC” value is above 64 µg/mL in the assay with P. multocida (P. multocida 43137); above 64 µg/mL in the assay with P. multocida (P. multocida 46572, murine efficacy challenge strain); above 64 µg/mL with M. haemolytica (M. haemolytica 12726); above 64 µg/mL with M. haemolytica (M. haemolytica 33396); above 64 µg/mL with M. haemolytica (M. haemolytica 46571, bovine efficacy challenge strain); above 64 µg/mL in the assay on S. aureus (29213 ATCC).
What is called IC50 is the concentration at which inhibition is half-maximal. Read a high IC50 as weaker potency in that assay. As to `CCCNC[C@]1(O)[C@H](C)O[C@@H](O[C@H]2[C@H](C)[C@@H](O[C@@H]3O[C@H](C)C[C@H](NC)[C@H]3Oc3ccc(OC)cc3)[C@](C)(O)C[C@@H](C)CN[C@H](C)[C@@H](O)[C@](C)(O)[C@@H](CC)OC(=O)[C@@H]2C)C[C@@]1(C)OC` [Example E-2, (2R,3S,4R,5R,8R,10R,11R,12S,13S,14R)-2-ethyl-3,4,10-trihydroxy-13-(((2R,4R,5S,6S)-5-hydroxy-4-methoxy-4,6-dimethyl-5-((propylamino)methyl)tetrahydro-2H-pyran-2-yl)oxy)-11-(((2S,3R,4S,6R)-3-(4-methoxyphenoxy)-6-methyl-4-(methylamino)tetrahydro-2H-pyran-2-yl)oxy)-3,5,8,10,12,14-hexamethyl-1-oxa-6-azacyclopentadecan-15-one], the “IL-1ß OS of LPS” value in the assay on IL-1β was determined as 32 µM. In addition, the “% Survival” value with P. multocida 46572 is 36%. The “MIC flag at the example number (Table E)” value in assay [1] is “E-2* (MIC ≤ 64 μg/mL for at least one BRD strain)”. Also, half-maximal inhibition in the assay with TNF-α (IC50) required 6 µM.
On to `CC[C@H]1OC(=O)[C@H](C)[C@@H](O)[C@H](C)[C@@H](O[C@@H]2O[C@H](C)C[C@H](NC)[C@H]2Oc2ccc(F)cc2)[C@](C)(O)C[C@@H](C)CN[C@H](C)[C@@H](O)[C@]1(C)O` [Example B-4, (2R,3S,4R,5R,8R,10R,11R,12S,13S,14R)-2-ethyl-11-(((2S,3R,4S,6R)-3-(4-fluorophenoxy)-6-methyl-4-(methylamino)tetrahydro-2H-pyran-2-yl)oxy)-3,4,10,13-tetrahydroxy-3,5,8,10,12,14-hexamethyl-1-oxa-6-azacyclopentadecan-15-one], for which the “IL-1ß OS of LPS” value in the assay on IL-1β stood at 100 µM. Moreover, the half-inhibitory concentration (IC50) in the assay on IL-6 and with TNF-α was 50 µM in each case. The “% Survival” value in the assay on P. multocida 46572 is 0%. In the assay with P. multocida 46572 (mouse, in vivo), the “clinical efficacy, P. multocida infection in mice” value was “clinically efficacious”.
As to `CCCNC[C@]1(O)[C@H](C)O[C@@H](O[C@H]2[C@H](C)[C@@H](O[C@@H]3O[C@H](C)C[C@H](NC)[C@H]3Oc3ccc(Cl)nc3)[C@](C)(O)C[C@@H](C)CN[C@H](C)[C@@H](O)[C@](C)(O)[C@@H](CC)OC(=O)[C@@H]2C)C[C@@]1(C)OC` [Example E-8, (2R,3S,4R,5R,8R,10R,11R,12S,13S,14R)-11-(((2S,3R,4S,6R)-3-((6-chloropyridin-3-yl)oxy)-6-methyl-4-(methylamino)tetrahydro-2H-pyran-2-yl)oxy)-2-ethyl-3,4,10-trihydroxy-13-(((2R,4R,5S,6S)-5-hydroxy-4-methoxy-4,6-dimethyl-5-((propylamino)methyl)tetrahydro-2H-pyran-2-yl)oxy)-3,5,8,10,12,14-hexamethyl-1-oxa-6-azacyclopentadecan-15-one], the “IL-1ß OS of LPS” value in the assay with IL-1β came out at 100 µM. Moreover, the IC50 was 110 µM in the assay with IL-6 and 25 µM in the assay with TNF-α. The “% Survival” value in the assay on P. multocida 46572 was 36%.
For `CC[C@H]1OC(=O)[C@H](C)[C@@H](O)[C@H](C)[C@@H](O[C@@H]2O[C@H](C)C[C@H](N(C)C(=O)N(C)c3ccccc3)[C@H]2Oc2ccc(OC)cc2)[C@](C)(O)C[C@@H](C)CN[C@H](C)[C@@H](O)[C@]1(C)O` [Example C-1, 1-((2S,3R,4S,6R)-2-(((2R,3S,4R,5R,8R,10R,11R,12S,13S,14R)-2-ethyl-3,4,10,13-tetrahydroxy-3,5,8,10,12,14-hexamethyl-15-oxo-1-oxa-6-azacyclopentadecan-11-yl)oxy)-3-(4-methoxyphenoxy)-6-methyltetrahydro-2H-pyran-4-yl)-1,3-dimethyl-3-phenylurea], the “IL-1ß OS of LPS” value in the assay on IL-1β came to 16 µM. In addition, the values for the IC50 with IL-6 and in the assay on TNF-α were 19 µM and 8 µM, respectively. In addition, the “% Survival” value in the assay on P. multocida 46572 was 33%.
Usually MIC50 stands for the lowest concentration that inhibits either 50% of growth or 50% of the strains tested, depending on the study. As a reminder, the MIC90 is the lowest concentration that inhibits either 90% of growth or 90% of the strains tested, depending on the study. For the compound `CCCN1C[C@H](C)[C@@H](O)[C@](C)(O)[C@@H](CC)OC(=O)[C@H](C)[C@@H](O[C@H]2C[C@@](C)(OC)[C@@H](O)[C@H](C)O2)[C@H](C)[C@@H](O[C@@H]2O[C@H](C)C[C@H](N(C)C)[C@H]2O)[C@](C)(O)C[C@H]1C` [gamithromycin (Zactran)], the MIC50 turned out to be 0.25 µg/mL in [2] (setting [3]), 1 µg/mL in assay [2] (setting [4]) and 1 µg/mL in assay [2] (setting [5]). Also, the results for the MIC90 in assay [2] (setting [3]), in assay [2] (setting [4]) and in [2] (setting [5]) were 2 µg/mL, above 64 µg/mL and above 64 µg/mL, respectively.
For `CCCNC[C@]1(O)[C@H](C)O[C@@H](O[C@H]2[C@H](C)[C@@H](O[C@@H]3O[C@H](C)C[C@H](NC)[C@H]3Oc3ccc(F)cc3)[C@](C)(O)C[C@@H](C)CN[C@H](C)[C@@H](O)[C@](C)(O)[C@@H](CC)OC(=O)[C@@H]2C)C[C@@]1(C)OC` [Example E-1, (2R,3S,4R,5R,8R,10R,11R,12S,13S,14R)-2-ethyl-11-(((2S,3R,4S,6R)-3-(4-fluorophenoxy)-6-methyl-4-(methylamino)tetrahydro-2H-pyran-2-yl)oxy)-3,4,10-trihydroxy-13-(((2R,4R,5S,6S)-5-hydroxy-4-methoxy-4,6-dimethyl-5-((propylamino)methyl)tetrahydro-2H-pyran-2-yl)oxy)-3,5,8,10,12,14-hexamethyl-1-oxa-6-azacyclopentadecan-15-one], the “IL-1ß OS of LPS” value with IL-1β was found to be 32 µM. For the same compound, the “% Survival” value in the assay on P. multocida 46572 amounted to 57%. Further, the “MIC flag at the example number (Table E)” value in assay [1] is given as “E-1* (MIC ≤ 64 μg/mL for at least one BRD strain)”. In the assay with TNF-α, the IC50 worked out at 6 µM.
For the compound `CC[C@H]1OC(=O)[C@H](C)[C@@H](O)[C@H](C)[C@@H](O[C@@H]2O[C@H](C)C[C@H](N(C)C(=O)N(C)c3ccccc3)[C@H]2Oc2ccccc2)[C@](C)(O)C[C@@H](C)CN[C@H](C)[C@@H](O)[C@]1(C)O` [Example C-2, 1-((2S,3R,4S,6R)-2-(((2R,3S,4R,5R,8R,10R,11R,12S, 13S, 14R)-2-ethyl-3,4,10,13-tetrahydroxy-3,5,8,10,12,14-hexamethyl-15-oxo-1-oxa-6-azacyclopentadecan-11-yl)oxy)-6-methyl-3-phenoxytetrahydro-2H-pyran-4-yl)-1,3-dimethyl-3-phenylurea], the “IL-1ß OS of LPS” value in the assay on IL-1β is 16 µM. Moreover, the results for the IC50 with IL-6 and with TNF-α were 32 µM and 27 µM, respectively. For the same compound, the “% Survival” value in the assay on P. multocida 46572 stood at 54%.
Take `CCCNC[C@]1(O)[C@H](C)O[C@@H](O[C@H]2[C@H](C)[C@@H](O[C@@H]3O[C@H](C)C[C@H](NC)[C@H]3Oc3ccc(C#N)cc3)[C@](C)(O)C[C@@H](C)CN[C@H](C)[C@@H](O)[C@](C)(O)[C@@H](CC)OC(=O)[C@@H]2C)C[C@@]1(C)OC` [Example E-111, 4-(((2S,3R,4S,6R)-2-(((2R,3S,4R,5R,8R,10R,11R,12S,13S,14R)-2-ethyl-3,4,10-trihydroxy-13-(((2R,4R,5S,6S)-5-hydroxy-4-methoxy-4,6-dimethyl-5-((propylamino)methyl)tetrahydro-2H-pyran-2-yl)oxy)-3,5,8,10,12,14-hexamethyl-15-oxo-1-oxa-6-azacyclopentadecan-11-yl)oxy)-6-methyl-4-(methylamino)tetrahydro-2H-pyran-3-yl)oxy)benzonitrile]: the “IL-1ß OS of LPS” value with IL-1β came out at 80 µM. The 50% inhibitory concentration (IC50) in the assay on IL-6 was found to be 90 µM; in the assay with TNF-α it was 9 µM. In the assay with P. multocida 46572, the “% Survival” value is listed as 22%.
